Source: US20240024500A1, “ELECTROSTATIC NANOPARTICLES AND USE THEREOF” (Westfaelische Wilhelms-Universitaet Muenster, priority 2020, published 2024)
Where two headings read alike, the source gives them in different places.

How the values were obtained:
[1] = Cell-free vesicle formation, light/fluorescence microscopy; assay type: physicochemical; conditions: charged vs uncharged cargo, modified vs unmodified antibody
Procedure: Based upon these measurements, we hypothesized that the antibody-protamine/free SMCC-protamine/siRNA complexes form outside cells and independently of a cellular context. […]
We further analysed the properties of the different conjugation products according to their capacity to form vesicular-structures without cells when these conjugation products were incubated with Alexa488-control-siRNA (FIG. 40 G-L) as well as with EGFR-positive A459 cells (FIG. 40 M-R). When cetuximab was conjugated with SMCC-protamine at ratios of 1:1 up to 1:10, no efficient cell-free vesicle formation could be observed (FIG. 40 G-I), while at the ratio 1:32, the vesicle formation was very abundant FIG. 40 J) and decreased at ratios 1:50 and 1:100 (FIG. 40 K-L). The internalisation capacity of these complexes was highest upon conjugation 1:32 (FIG. 40 P), decrease upon conjugation 1:10 (FIG. 40 O). […] This hinted at an optimal complex formation of cetuximab with SMCC-protamine of 1:32, since this lead to the most efficient conjugation, vesicle formation without cells and internalisation into cells.
To further elucidate the function of SMCC-protamine coupled to the antibody and as free molecule within the complex, we titrated the amount of SMCC-protamine added to the antibody-protamine-conjugates that were depleted from free SMCC-protamine by HPLC. […] We added different amounts of free SMCC-protamine and protamine alone to anti-EGFR-mAB-P (FIG. 41).

[2] = test system: HBL-1 cells; test: Colony formation assay, HBL-1, ibrutinib-Cy3.5 cargo; assay type: cell-based
Procedure: Next, we planned functional assays for identifying the effectivity of the antibody-inhibitor-complexes. DLBCL tumor cells were seeded in methylcellulose to form anchorage-free colony growth as a substitute marker for tumorigenicity. Assays were treated with combinations of antibody-inhibitor complexes and compared with appropriate control groups.
This colony-assay is used for quantification of anchorage-independent clonal cell growth and is a standard in vitro surrogate for tumorigenicity in vivo.

[3] = test system: HBL-1 DLBCL-cells; test: NSG-HBL1 xenograft model; conditions: after treatment start
[4] = target: EGFR (epidermal growth factor receptor) on cells (UniProt P00533); test: cell-based or functional assay

Compound | nanoparticle formation with antibody carriers [1] | nanoparticle formation with antibody carriers ([1]; listed as uncharged ibrutinib) | colony formation of HBL-1 cells [2] | day by which all / the last mice had to be sacrificed [3] [days] | Alexa488-siRNA shuttled into RD cells (FACS) [4] | internalisation of Alexa488-siRNA into RD cells (FACS) [4] | colony formation of HBL-1 cells ([2]; listed as unconjugated rituximab) | colony formation of HBL-1 cells ([2]; listed as unmodified rituximab (αCD20-mAB))
C=CC(=O)N1CCC[C@@H](n2nc(-c3ccc(Oc4ccccc4)cc3)c3c(N)ncnc32)C1 [ibrutinib, 1-[(3R)-3-[4-amino-3-(4-phenoxyphenyl)pyrazolo[3,4-d]pyrimidin-1-yl]piperidin-1-yl]prop-2-en-1-one] | not seen | not | much lesser degree | 20 | – | – | – | –
cetuximab-SMCC-protamine conjugate (anti-EGFR-mAB-protamine, used with free SMCC-protamine) (antibody) | – | – | – | – | > 90 % of cells | < 90 % of cells | – | –
rituximab: anti-CD20 antibody | not seen | – | – | ≤ 16 | – | – | only a mild effect | not
